How the values were obtained:
[1] = target: T1, Vascular endothelial growth factor receptor 2 (Homo sapiens, UniProt P35968); test: Inhibition of VEGFR2 by cell-based assay; type: functional
[2] = target: T1, Vascular endothelial growth factor receptor 2; test: Inhibition of VEGFR2 by HTRF assay
[3] = target: T2, Vascular endothelial growth factor receptor 1 (Homo sapiens, UniProt P17948); test: Inhibition of VEGFR1 by HTRF assay
Target sequence in this assay (P17948 whole entry, looked up): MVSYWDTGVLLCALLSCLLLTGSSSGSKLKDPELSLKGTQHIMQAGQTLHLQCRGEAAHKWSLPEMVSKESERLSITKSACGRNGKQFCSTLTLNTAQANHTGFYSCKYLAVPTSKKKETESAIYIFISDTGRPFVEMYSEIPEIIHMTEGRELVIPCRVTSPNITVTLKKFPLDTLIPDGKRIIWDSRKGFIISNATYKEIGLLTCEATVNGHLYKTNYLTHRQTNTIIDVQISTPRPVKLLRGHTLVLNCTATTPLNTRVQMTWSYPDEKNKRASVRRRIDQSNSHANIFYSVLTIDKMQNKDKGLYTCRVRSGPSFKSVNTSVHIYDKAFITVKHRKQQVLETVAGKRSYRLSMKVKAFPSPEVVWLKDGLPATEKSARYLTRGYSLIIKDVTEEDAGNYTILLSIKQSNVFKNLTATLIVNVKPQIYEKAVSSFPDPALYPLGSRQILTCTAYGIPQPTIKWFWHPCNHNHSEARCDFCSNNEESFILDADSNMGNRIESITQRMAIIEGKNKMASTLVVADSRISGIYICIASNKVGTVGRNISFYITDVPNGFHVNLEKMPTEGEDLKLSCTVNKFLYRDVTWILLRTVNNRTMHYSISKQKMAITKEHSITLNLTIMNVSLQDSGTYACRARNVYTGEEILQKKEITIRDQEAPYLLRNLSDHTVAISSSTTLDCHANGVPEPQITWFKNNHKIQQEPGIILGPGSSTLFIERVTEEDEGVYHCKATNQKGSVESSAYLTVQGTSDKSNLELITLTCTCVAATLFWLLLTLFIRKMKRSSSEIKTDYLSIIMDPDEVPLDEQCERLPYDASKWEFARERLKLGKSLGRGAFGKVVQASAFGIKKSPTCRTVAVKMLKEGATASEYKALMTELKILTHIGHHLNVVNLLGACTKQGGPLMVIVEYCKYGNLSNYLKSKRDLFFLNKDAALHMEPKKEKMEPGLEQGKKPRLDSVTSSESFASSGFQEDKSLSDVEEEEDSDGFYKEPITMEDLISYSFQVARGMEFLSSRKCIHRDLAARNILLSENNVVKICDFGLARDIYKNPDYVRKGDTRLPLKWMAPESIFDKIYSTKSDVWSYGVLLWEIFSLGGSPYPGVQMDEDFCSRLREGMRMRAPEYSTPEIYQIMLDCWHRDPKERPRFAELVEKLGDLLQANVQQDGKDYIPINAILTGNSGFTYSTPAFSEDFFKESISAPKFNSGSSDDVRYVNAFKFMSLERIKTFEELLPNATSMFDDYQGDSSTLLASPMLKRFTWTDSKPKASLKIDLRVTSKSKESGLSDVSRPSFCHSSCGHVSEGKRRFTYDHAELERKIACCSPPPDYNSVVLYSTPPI

[4] = Intrinsic permeability across Caco-2 cell monolayers; settings: human
[5] = target: T2, Vascular endothelial growth factor receptor 1; test: Inhibition of VEGFR1 by HTRF assay
Target sequence in this assay (P17948 whole entry): as the sequence (P17948 whole entry, looked up) above

[6] = target: T1, Vascular endothelial growth factor receptor 2; test: Inhibition of VEGFR2 by HTRF assay

T1 sequence (P35968 whole entry): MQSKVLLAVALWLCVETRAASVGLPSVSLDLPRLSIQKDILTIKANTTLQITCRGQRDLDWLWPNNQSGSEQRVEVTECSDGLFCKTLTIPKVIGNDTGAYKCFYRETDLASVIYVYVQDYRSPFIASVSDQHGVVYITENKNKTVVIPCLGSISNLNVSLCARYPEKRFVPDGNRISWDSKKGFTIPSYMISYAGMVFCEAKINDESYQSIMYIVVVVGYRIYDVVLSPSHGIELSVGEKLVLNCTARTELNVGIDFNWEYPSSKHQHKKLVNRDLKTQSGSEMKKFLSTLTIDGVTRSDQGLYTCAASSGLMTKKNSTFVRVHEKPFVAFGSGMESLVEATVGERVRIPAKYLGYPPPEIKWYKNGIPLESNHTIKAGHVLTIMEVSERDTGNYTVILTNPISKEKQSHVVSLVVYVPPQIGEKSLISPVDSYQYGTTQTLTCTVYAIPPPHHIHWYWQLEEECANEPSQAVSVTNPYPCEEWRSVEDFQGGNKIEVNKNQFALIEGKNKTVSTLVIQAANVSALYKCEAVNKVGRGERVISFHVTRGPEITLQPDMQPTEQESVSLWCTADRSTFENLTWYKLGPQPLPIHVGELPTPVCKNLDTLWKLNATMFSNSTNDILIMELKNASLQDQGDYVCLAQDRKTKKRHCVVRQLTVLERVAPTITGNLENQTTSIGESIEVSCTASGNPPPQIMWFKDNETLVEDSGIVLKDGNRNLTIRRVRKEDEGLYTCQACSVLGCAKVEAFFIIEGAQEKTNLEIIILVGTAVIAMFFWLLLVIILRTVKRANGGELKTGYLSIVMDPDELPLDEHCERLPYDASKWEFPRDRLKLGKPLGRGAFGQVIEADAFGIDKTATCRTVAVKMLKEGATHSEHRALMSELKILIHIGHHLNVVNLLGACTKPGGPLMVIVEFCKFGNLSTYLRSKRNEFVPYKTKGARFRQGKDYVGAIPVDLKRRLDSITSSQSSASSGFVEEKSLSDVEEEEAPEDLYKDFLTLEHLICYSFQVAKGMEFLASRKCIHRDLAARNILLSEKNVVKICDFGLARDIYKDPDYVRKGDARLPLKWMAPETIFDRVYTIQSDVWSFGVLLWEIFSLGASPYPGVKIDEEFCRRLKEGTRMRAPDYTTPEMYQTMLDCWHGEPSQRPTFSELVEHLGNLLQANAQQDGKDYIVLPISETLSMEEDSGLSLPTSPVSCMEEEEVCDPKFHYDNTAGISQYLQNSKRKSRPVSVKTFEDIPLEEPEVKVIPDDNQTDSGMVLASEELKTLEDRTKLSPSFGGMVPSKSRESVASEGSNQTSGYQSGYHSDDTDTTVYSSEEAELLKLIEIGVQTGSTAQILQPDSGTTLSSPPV

Compound	IC50 [1] [µM]	IC50 [2] [µM]	IC50 [3] [µM]	Papp [4] [×10⁻⁶ cm/s]	IC50 [5] [µM]	IC50 [6] [µM]
Cc1ccc(NC(=O)c2c(NCc3ccncc3)ncn2C)cc1C(F)(F)F	–	0.34	0.61	5.93	–	–
Cn1ncc(NCc2ccncc2)c1C(=O)Nc1cccc(Cl)c1	> 10	2.06	3.22	–	–	–
Cn1cnc(NCc2ccc3c(c2)OCO3)c1C(=O)Nc1ccc(C(F)(F)F)cc1	> 10	–	–	–	1.68	2.55
Cn1ncc(NCc2ccncc2)c1C(=O)Nc1ccc(C(C)(C)C)cc1	0.045	0.13	0.18	6.25	–	–
Cn1cnc(NCc2ccncc2)c1C(=O)Nc1cccc(OC(F)(F)F)c1	0.35	0.76	1.11	–	–	–
Cn1ncc([N+](=O)[O-])c1C(=O)O	–	–	–	5.4	–	–
Cn1ncc(NCc2ccncc2)c1C(=O)Nc1cccc(C(F)(F)F)c1	1.34	0.75	1.06	–	–	–
Cc1ccc(NC(=O)c2c(NCc3ccncc3)cnn2C)cc1C(F)(F)F	0.102	0.66	0.93	–	–	–
Cn1ncc(NCc2ccncc2)c1C(=O)Nc1ccc(Cl)cc1	1	4.58	> 10	–	–	–
Cn1ncc(NCc2ccncc2)c1C(=O)Nc1ccc(Cl)c(Cl)c1	0.082	0.25	0.36	6.73	–	–
CC(C)c1ccc(NC(=O)c2c(NCc3ccncc3)cnn2C)cc1	0.088	0.29	0.44	–	–	–
COc1ccc(NC(=O)c2c(NCc3ccncc3)ncn2C)cc1OC	0.057	0.21	0.35	8.22	–	–
Cn1cnc(NCc2ccncc2)c1C(=O)Nc1ccc(Cl)cc1	1.65	0.25	> 10	0.95	–	–
Cn1cnc(NCc2ccncc2)c1C(=O)Nc1cnc2ccccc2c1	0.92	0.23	0.35	–	–	–
Cn1cnc(NCc2cccnc2)c1C(=O)Nc1cccc(C(F)(F)F)c1	> 10	> 10	> 10	–	–	–
Cn1ncc(NCc2ccncc2)c1C(=O)Nc1ccc(Cl)c(C(F)(F)F)c1	0.11	1.13	1.36	–	–	–
Cn1ncc(NCc2cccnc2)c1C(=O)Nc1ccc(C(F)(F)F)cc1	> 10	> 10	> 10	–	–	–
Cn1cnc(NCc2ccncc2)c1C(=O)Nc1cccc(Cl)c1	> 10	2.06	3.22	–	–	–
Cn1cnc(NCc2ccncc2)c1C(=O)Nc1ccc2c(c1)CN=N2	> 10	6.02	> 10	–	–	–
Cn1cnc(NCc2ccncc2)c1C(=O)Nc1cc(C(F)(F)F)cc(C(F)(F)F)c1	0.15	0.74	1.06	–	–	–
Cn1cnc(NCc2ccncc2)c1C(=O)NCc1ccc2c(c1)OCO2	0.74	0.65	1.12	–	–	–

Further lines, results first:

IC50 [1] [µM]	IC50 [2] [µM]	IC50 [3] [µM]	Papp [4] [×10⁻⁶ cm/s]	IC50 [5] [µM]	IC50 [6] [µM]	Compound
> 10	> 10	> 10	–	–	–	Cn1ncc(NCc2ccncc2)c1C(=O)Nc1ccc(Oc2ccccc2)cc1
> 10	4.29	> 10	–	–	–	Cn1cnc(NCc2ccncc2)c1C(=O)Nc1ccc(Oc2ccccc2)cc1
> 10	4.23	> 10	–	–	–	Cc1noc(NCc2ccncc2)c1C(=O)Nc1ccc(C(F)(F)F)c(C(F)(F)F)c1
0.91	2.12	3.55	–	–	–	Cc1noc(NCc2ccncc2)c1C(=O)Nc1ccc(OC(F)(F)F)cc1
> 10	> 10	> 10	–	–	–	Cn1ncc(NCc2ccncc2)c1C(=O)Nc1ccc(-c2ccccc2)cc1
2.27	1.56	1.69	–	–	–	Cc1noc(NCc2ccncc2)c1C(=O)Nc1cccc(C(F)(F)F)c1
–	–	–	2.88	–	–	O=C(Nc1cnc2ccccc2c1)c1ccccc1NCc1ccncc1
0.21	0.28	0.42	–	–	–	Cc1noc(NCc2ccncc2)c1C(=O)Nc1ccc(C(C)(C)C)cc1
> 10	> 10	> 10	–	–	–	Cc1noc(NCc2ccncc2)c1C(=O)Nc1ccc(-c2ccccc2)cc1
0.32	0.56	1.11	–	–	–	Cc1noc(NCc2ccncc2)c1C(=O)Nc1ccc(C(F)(F)F)c(Cl)c1
0.35	0.44	0.76	–	–	–	Cc1noc(NCc2ccncc2)c1C(=O)Nc1ccc(C(C)C)cc1
> 10	5.57	> 10	–	–	–	Cn1cnc(NCc2ccncc2)c1C(=O)Nc1ccc(Cc2ccccc2)cc1
> 10	> 10	> 10	–	–	–	Cc1noc(NCc2ccncc2)c1C(=O)Nc1ccc(Oc2ccccc2)cc1
